The structures appear in SMILES notation.

We go through eleven compounds from patent US20180000085A1, “USE OF PICOLINAMIDE COMPOUNDS WITH FUNGICIDAL ACTIVITY” (DOW AGROSCIENCES LLC, priority 2014, published 2018).

What all share (format): in vivo
The test system of one assay is Alternaria solani. Kind of assay: Tomato early blight (ALTESO) disease control. As to conditions: 100 ppm, 1 Day Protectant. The arrangement: key: A: > 80; B: ≤ 80; C: Not Tested; D: No Activity Observed in the Reported Assay. The protocol: All fungicides were evaluated using the aforementioned method for their activity vs. all target diseases, unless stated otherwise. Wheat leaf blotch and brown rust activity were also evaluated using track spray applications, in which case the fungicides were formulated as EC formulations, containing 0.1% Trycol 5941 in the spray solutions. Wheat plants (variety Yuma) were grown from seed in a greenhouse in 50% mineral soil/50% soil-less Metro mix until the first leaf was fully emerged, with 7-10 seedlings per pot. These plants were inoculated with an aqueous spore suspension of Zymoseptoria tritici either prior to or after fungicide treatments. After inoculation the plants were kept in 100% relative humidity (one day in a dark dew chamber followed by two to three days in a lighted dew chamber at 20° C.) to permit spores to germinate and infect the leaf. The plants were then transferred to a greenhouse set at 20° C. for disease to develop. When disease symptoms were fully expressed on the 1st leaves of untreated plants, infection levels were assessed on a scale of 0 to 100 percent disease severity. Percent disease control was calculated using the ratio of disease severity on treated plants relative to untreated plants. Example J: Evaluation of Fungicidal Activity: Tomato Early Blight (Alternaria solani; Bayer Code […]) Tomato plants (variety Outdoor Girl) were propagated in soil-less Metro mix, with each pot having one plant, and used when 12 to 14 days old. Test plants were inoculated with an aqueous spore suspension of Alternaria solani 24 hr after fungicide treatments. After inoculation the plants were kept in a dew room at 22° C. with 100% relative humidity for 48 h to permit spores to germinate and infect the leaf. The plants were then transferred to a growth room at 22° C. for disease to develop. Fungicide formulation, application and disease assessment on the sprayed leaves followed the procedures as described in the Example A.

A further assay deals with Cercospora beticola. The assay is described as follows: Leaf spot of sugar beets (CERCBE) disease control. As to conditions: 100 ppm; 1 Day Protectant; sugar beet. The protocol: All fungicides were evaluated using the aforementioned method for their activity vs. all target diseases, unless stated otherwise. Wheat leaf blotch and brown rust activity were also evaluated using track spray applications, in which case the fungicides were formulated as EC formulations, containing 0.1% Trycol 5941 in the spray solutions. Wheat plants (variety Yuma) were grown from seed in a greenhouse in 50% mineral soil/50% soil-less Metro mix until the first leaf was fully emerged, with 7-10 seedlings per pot. These plants were inoculated with an aqueous spore suspension of Zymoseptoria tritici either prior to or after fungicide treatments. After inoculation the plants were kept in 100% relative humidity (one day in a dark dew chamber followed by two to three days in a lighted dew chamber at 20° C.) to permit spores to germinate and infect the leaf. The plants were then transferred to a greenhouse set at 20° C. for disease to develop. When disease symptoms were fully expressed on the 1st leaves of untreated plants, infection levels were assessed on a scale of 0 to 100 percent disease severity. Percent disease control was calculated using the ratio of disease severity on treated plants relative to untreated plants. Example F: Evaluation of Fungicidal Activity: Leaf Spot of Sugar Beets (Cercospora beticola; Bayer Code CERCBE) Sugar beet plants (variety HH88) were grown in soil-less Metro mix and trimmed regularly to maintain a uniform plant size prior to test. Plants were inoculated with a spore suspension 24 hr after fungicide treatments. Inoculated plants were kept in a dew chamber at 22° C. for 48 hr then incubated in a greenhouse set at 24° C. under a clear plastic hood with bottom ventilation until disease symptoms were fully expressed. Fungicide formulation, application and disease assessment on the sprayed leaves followed the procedures as described in the Example A.

A further assay concerns Puccinia triticina. The assay is described as follows: Wheat brown rust (PUCCRT) disease control on wheat seedlings. Details: key to PUCCRT 3DC, HV activity at 100 ppm (% control rating) / PUCCRT disease control, 3DC / PUCCRT 1DP disease control rating, HV activity / PUCCRT 3DC disease control rating, HV activity / PUCCRT 3DC, LV activity at 125.1 g/H (% Control rating) / PUCCRT 1DP, LV activity at 125.1 g/H (% Control rating) / PUCCRT 3DC disease control rating, LV activity at 125.1 g/H / PUCCRT 1DP disease control rating, LV activity at 125.1 g/H / PUCCRT 3DC disease control rating, HV activity at 100 ppm / PUCCRT 1DP disease control rating, HV activity at 100 ppm / HV activity at 100 ppm PUCCRT 3DC (disease control rating) / LV activity at 125.1 g/H PUCCRT 1DP (disease control rating) / LV activity at 125.1 g/H PUCCRT 3DC (disease control rating): A: > 80; B: ≤ 80; C: Not Tested; D: No Activity Observed in the Reported Assay.

Setting [1] is: low volume application, 125.1 g/H, 1 Day Protectant.
[2] abbreviates: low volume application, 125.1 g/H, 3 Day Curative.

In the case of `COc1ccnc(C(=O)N[C@@H](C)C(=O)O[C@H](C)[C@@H](Oc2ccccc2)c2ccccc2)c1OCOC(C)=O` [Cmpd 547], the “ALTESO disease control, 1DP” value with Alternaria solani is given as “B (≤ 80)”. Also, the “CERCBE disease control, 1DP” value in the assay with Cercospora beticola is “B (≤ 80)”. For the same compound, the “PUCCRT 1DP, LV activity at 125.1 g/H (% Control rating)” value (“PUCCRT 1DP … (% Control rating)” for short) in the assay with Puccinia triticina (setting [1]) is “A (> 80)”. Further, the “PUCCRT 3DC, LV activity at 125.1 g/H (% Control rating)” value (from here on “PUCCRT 3DC … (% Control rating)”) in the assay with Puccinia triticina (setting [2]) is reported as “A (> 80)”.

Regarding `COc1ccnc(C(=O)N[C@@H](C)C(=O)O[C@@H](C)[C@H](Oc2ccccc2)c2ccccc2)c1OCOC(C)=O` [Cmpd 500], the “ALTESO disease control, 1DP” value in the assay on Alternaria solani is on record as “B (≤ 80)”. The “CERCBE disease control, 1DP” value with Cercospora beticola is “A (> 80)”. Besides, the “PUCCRT 1DP … (% Control rating)” value with Puccinia triticina (setting [1]) is on record as “A (> 80)”. Also, the “PUCCRT 3DC … (% Control rating)” value in the assay with Puccinia triticina (setting [2]) is on record as “A (> 80)”.

In the case of `COc1ccnc(C(=O)N[C@H](C)C(=O)O[C@@H](C)[C@H](Oc2ccccc2)C(C)C)c1OCOC(C)=O` [Cmpd 558], the “ALTESO disease control, 1DP” value in the assay with Alternaria solani is listed as “B (≤ 80)”. In the assay on Cercospora beticola, the “CERCBE disease control, 1DP” value is reported as “B (≤ 80)”. Also, in the assay on Puccinia triticina (setting [1]), the “PUCCRT 1DP … (% Control rating)” value is on record as “D”. Further, in the assay with Puccinia triticina (setting [2]), the “PUCCRT 3DC … (% Control rating)” value is listed as “B (≤ 80)”.

With `COc1ccnc(C(=O)N[C@H](C)C(=O)O[C@H](C)[C@@H](Oc2ccccc2)c2ccccc2)c1OCOC(C)=O` [Cmpd 549], the “ALTESO disease control, 1DP” value with Alternaria solani was “B (≤ 80)”. Besides, the “CERCBE disease control, 1DP” value with Cercospora beticola is given as “B (≤ 80)”. Also, the “PUCCRT 1DP … (% Control rating)” value with Puccinia triticina (setting [1]) was “D”. The “PUCCRT 3DC … (% Control rating)” value with Puccinia triticina (setting [2]) was “D”.

As to `COc1ccnc(C(=O)N[C@H](C)C(=O)O[C@H](C)[C@@H](Oc2ccccc2)C(C)C)c1OCOC(C)=O` [Cmpd 548], the “ALTESO disease control, 1DP” value in the assay with Alternaria solani is “B (≤ 80)”. Moreover, the “CERCBE disease control, 1DP” value in the assay on Cercospora beticola is listed as “B (≤ 80)”. Besides, in the assay with Puccinia triticina (setting [1]), the “PUCCRT 1DP … (% Control rating)” value is “D”. Besides, the “PUCCRT 3DC … (% Control rating)” value with Puccinia triticina (setting [2]) is “D”.

As to `COc1ccnc(C(=O)N[C@H](C)C(=O)O[C@@H](C)[C@@H](Oc2ccccc2)C(C)C)c1OCOC(C)=O` [Cmpd 559], in the assay with Alternaria solani, the “ALTESO disease control, 1DP” value is listed as “B (≤ 80)”. Besides, the “CERCBE disease control, 1DP” value in the assay with Cercospora beticola is reported as “B (≤ 80)”. For the same compound, in the assay on Puccinia triticina (setting [1]), the “PUCCRT 1DP … (% Control rating)” value is on record as “D”. In addition, the “PUCCRT 3DC … (% Control rating)” value in the assay with Puccinia triticina (setting [2]) was “D”.

As to `COc1ccnc(C(=O)N[C@@H](C)C(=O)O[C@@H](C)[C@H](Oc2ccccc2Cl)c2ccccc2)c1OC(C)=O` [Cmpd 640], the “ALTESO disease control, 1DP” value with Alternaria solani is “B (≤ 80)”. The “CERCBE disease control, 1DP” value in the assay on Cercospora beticola is “A (> 80)”. The “PUCCRT 1DP … (% Control rating)” value with Puccinia triticina (setting [1]) is “A (> 80)”. Also, in the assay on Puccinia triticina (setting [2]), the “PUCCRT 3DC … (% Control rating)” value is on record as “A (> 80)”.

In the case of `CCCOC(CC)C(Oc1ccccc1)C(C)OC(=O)C(C)NC(=O)c1nccc(OC)c1OCOC(C)=O` (stereo not shown) [Cmpd 446], in the assay with Alternaria solani, the “ALTESO disease control, 1DP” value is “D”. Also, in the assay on Cercospora beticola, the “CERCBE disease control, 1DP” value is reported as “B (≤ 80)”. Moreover, the “PUCCRT 1DP disease control rating, HV activity” value with Puccinia triticina (HV application at 100 ppm, 1 Day Protectant, wheat brown rust) is recorded as “A (> 80)”. For the same compound, the “PUCCRT 3DC disease control rating, HV activity” value in the assay on Puccinia triticina (HV application at 100 ppm, 3 Day Curative, wheat brown rust) was “A (> 80)”. The “PUCCRT 1DP disease control rating, LV activity” value in the assay with Puccinia triticina (Low volume application at 125.1 g/H, 1 Day Protectant, wheat brown rust) is reported as “A (> 80)”. Also, in the assay with Puccinia triticina (Low volume application at 125.1 g/H, 3 Day Curative, wheat brown rust), the “PUCCRT 3DC disease control rating, LV activity” value was “A (> 80)”.

For the compound `COc1ccnc(C(=O)N[C@@H](C)C(=O)O[C@@H](C)[C@H](Oc2cc(F)cc(Cl)c2)C(C)C)c1OCOC(C)=O` [Cmpd 617], in the assay with Alternaria solani, the “ALTESO disease control, 1DP” value was “D”. In addition, the “CERCBE disease control, 1DP” value in the assay with Cercospora beticola is “B (≤ 80)”. In addition, the “PUCCRT 1DP … (% Control rating)” value with Puccinia triticina (setting [1]) is on record as “A (> 80)”. Also, the “PUCCRT 3DC … (% Control rating)” value with Puccinia triticina (setting [2]) is recorded as “A (> 80)”.

With `CCC(C)C(Oc1ccccc1)C(C)OC(=O)C(C)NC(=O)c1nccc(OC)c1OCOC(C)=O` (stereo not shown) [Cmpd 692], the “ALTESO disease control, 1DP” value in the assay on Alternaria solani is listed as “B (≤ 80)”. For the same compound, in the assay on Cercospora beticola, the “CERCBE disease control, 1DP” value is “A (> 80)”. Further, in the assay on Puccinia triticina (low volume application, 125.1 g/H, 1 day protectant), the “PUCCRT 1DP disease control rating, LV activity at 125.1 g/H” value is “A (> 80)”. Moreover, in the assay on Puccinia triticina (low volume application, 125.1 g/H, 3 day curative), the “PUCCRT 3DC disease control rating, LV activity at 125.1 g/H” value is on record as “A (> 80)”.

With `COc1ccnc(C(=O)N[C@@H](C)C(=O)O[C@@H](C)[C@H](Oc2ccccc2)C2CCCC2)c1OCOC(C)=O` [Cmpd 556], in the assay on Alternaria solani, the “ALTESO disease control, 1DP” value was “B (≤ 80)”. The “CERCBE disease control, 1DP” value with Cercospora beticola is “A (> 80)”. For the same compound, the “PUCCRT 1DP … (% Control rating)” value in the assay with Puccinia triticina (setting [1]) is “A (> 80)”. In addition, the “PUCCRT 3DC … (% Control rating)” value with Puccinia triticina (setting [2]) was “A (> 80)”.
